pKi: −log10 of the molar value.
Key:
[1] = target: T1, soluble epoxide hydrolase (sEH) (Homo sapiens, UniProt P34913); details: cited from earlier work
T1 construct: purchased Cayman (Ann Arbor, MI, USA) 10011669
T1 sequence (P34913 1-555): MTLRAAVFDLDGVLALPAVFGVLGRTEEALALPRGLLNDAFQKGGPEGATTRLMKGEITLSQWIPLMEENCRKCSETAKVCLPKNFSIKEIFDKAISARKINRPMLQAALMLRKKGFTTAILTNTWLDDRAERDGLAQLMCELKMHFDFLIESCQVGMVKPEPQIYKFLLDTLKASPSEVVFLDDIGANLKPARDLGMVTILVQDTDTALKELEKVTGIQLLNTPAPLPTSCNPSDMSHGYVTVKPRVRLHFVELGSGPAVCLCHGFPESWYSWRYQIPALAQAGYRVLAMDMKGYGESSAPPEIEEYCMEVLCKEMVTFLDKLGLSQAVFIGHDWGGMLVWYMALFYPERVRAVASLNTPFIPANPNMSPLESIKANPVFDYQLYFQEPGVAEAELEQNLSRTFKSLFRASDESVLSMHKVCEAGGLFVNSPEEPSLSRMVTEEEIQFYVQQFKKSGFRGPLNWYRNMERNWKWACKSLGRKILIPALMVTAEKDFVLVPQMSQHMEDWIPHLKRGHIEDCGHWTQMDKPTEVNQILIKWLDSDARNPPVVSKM

[2] = parameters: method as in PMID 19794443; details: cited from earlier work
[3] = target: T1, soluble epoxide hydrolase (sEH); test: sEH enzyme kinetics (Lineweaver–Burk and Dixon plots); assay type: biochemical; details: for Binding Mode (inhibition type): Lineweaver–Burk plot, substrate 1–12.5 µM
Experimental: (§1) sEH (130 µL, ~16 ng/mL) in 25 mM bis-Tris-HCl buffer (pH 7.0) containing 0.1% BSA and 20 µL of compound in MeOH was mixed in a 96-well plate, followed by the addition of 50 µL buffer containing 5 µM PHOME. The reactions were carried out at 37°C for 40 min. The inhibitory ratio was calculated according to the following equations: Inhibitory activityrate (%) = [[…]] × 100(1) where ΔC andΔS represent the intensity of control and inhibitor after 40 min, respectively. y = y0 + [(a × x)/(b + x)](2) where y0 is the minimum value on the y-axis, a denotes the difference between maximum and minimum values, and b refers to the x value at 50%.
The inverse of these concentrations and v0 values were used for the Lineweaver–Burk plot. […] Furthermore, the Dixon plot is represented by the modified Lineweaver–Burk plot.

[4] = target: T1, soluble epoxide hydrolase (sEH); test: sEH inhibition assay (PHOME substrate, fluorescence); assay type: biochemical; details: 5 µM PHOME, 37°C, 40 min, pH 7.0; n = 3; read-out: IC50, inhibitory activity on sEH (converted)
Experimental: as §1, with “The” for “sEH (130 µL, ~16 ng/mL) in 25 mM bis-Tris-HCl buffer (pH 7.0) containing 0.1% BSA and 20 µL of compound in MeOH was mixed in a 96-well plate, followed by the addition of 50 µL buffer containing 5 µM PHOME. The”

COc1cc(O)c2c(=O)c(OC)c(-c3ccc(O[C@@H]4O[C@H](CO)[C@@H](O)[C@H](O)[C@H]4O[C@@H]4OCC(O)(CO)[C@H]4O)c(OC)c3)oc2c1 (stereo partly drawn) [3,7,3′-tri-O-methylquercetin-4′-O-β-D-apiofuranosyl-(1→2)-O-β-D-glucopyranoside]
inhibition type on sEH [1]: non-competitive

O=C(O)CCCCCCCCCCCNC(=O)NC12CC3CC(CC(C3)C1)C2 [AUDA, 12-(3-adamantan-1-yl-ureido)dodecanoic acid]
solubility [2]: low

O=c1cc(-c2ccc(O)cc2)oc2cc(O)cc(O)c12 [apigenin]
inhibition type on sEH [1]: non-competitive

COc1cc(-c2cc(=O)c3c(O)cc(O)cc3o2)ccc1O [compound 1, chrysoeriol]
Binding Mode (inhibition type) [3]: Non-competitive type

O=c1cc(-c2ccc(O)c(O)c2)oc2cc(O[C@@H]3O[C@H](CO)[C@@H](O)[C@H](O)[C@H]3O)cc(O)c12 [compound 2, luteolin-7-O-glucopyranoside]
pKi ([3]; Dixon plot): 4.58 | Binding Mode (inhibition type) [3]: Non-competitive type | IC50 [4]: 32.1 µM

O=c1c(O)c(-c2ccc(O)cc2)oc2cc(O)cc(O)c12 [kaempferol]
inhibition type on sEH [1]: non-competitive

O=c1c(O[C@@H]2O[C@H](CO)[C@H](O)[C@H](O)[C@H]2O)c(-c2ccc(O)c(O)c2)oc2cc(O)cc(O)c12 [quercetin-3-O-β-D-galactoside]
inhibition type on sEH [1]: non-competitive

From paper PMC7072517 (Biomolecules, 2020)
